Source: patent US11780826B2 (Amgen Inc., priority 2017, dated 2023)

Tested on: Bovine cardiac myofibrils
Assay: In vitro model of dose-dependent myofibril ATPase modulation (AC1.4, pyruvate kinase/lactate dehydrogenase-coupled ATPase assay at pCa25)
Format: biochemical
Conditions: concentration at which ATPase activity was 1.4-fold higher than the bottom of the dose curve, mean of a minimum of two independent tests
Summary of the method: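 Bovine cardiac myofibrils, detergent-treated; 0.25-1.0 mg/ml. Buffer: K-PIPES 12 mM, MgCl2 2 mM, DTT 1 mM, BSA 0.1 mg/ml, pH 6.80, 22° C; Ca2+ set by EGTA/CaCl2. ATP 1 mM, NADH/PEP-coupled, A340. 4-parameter fit; n≥2.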

Cc1cc(C(=O)N2[C@@H](C(=O)N[C@@H](c3ccc(C(F)(F)F)cc3F)C3CC3)C[C@H]3C[C@H]32)c(NCCO)cn1 [Example 545, (1R,3R,5R)-N-((R)-cyclopropyl(2-fluoro-4-(trifluoromethyl)phenyl)methyl)-2-((5-((2-hydroxyethyl)amino)-2-methyl-4-pyridinyl)carbonyl)-2-azabicyclo[3.1.0]hexane-3-carboxamide]
AC1.4: 2.818 µM

CCC(NC(=O)[C@H]1CCCN1C(=O)[C@H]1CCCN(S(=O)(=O)N2CC(C)(O)C2)C1)c1ccc(C(F)(F)F)cc1 (stereo partly drawn) [Example 668, (2R)-1-((S)-1-((3-hydroxy-3-methylazetidin-1-yl)sulfonyl)piperidine-3-carbonyl)-N-(1-(4-(trifluoromethyl)phenyl)propyl)pyrrolidine-2-carboxamide]
AC1.4: 4.71 µM

O=C(N[C@@H](c1ccc(C(F)(F)F)cc1F)C1CC1)[C@H]1C[C@H]2C[C@H]2N1C(=O)c1cccc(S(=O)(=O)C2CC2)c1 [Example 211, (1R,3R,5R)-N-((R)-cyclopropyl(2-fluoro-4-(trifluoromethyl)phenyl)methyl)-2-(3-(cyclopropylsulfonyl)benzoyl)-2-azabicyclo[3.1.0]hexane-3-carboxamide]
AC1.4: 0.4488 µM

COC(=O)[C@H]1C[C@H](S(=O)(=O)N2CCC[C@H](C(=O)N3CCC[C@@H]3C(=O)NCc3ccc(C(F)(F)F)cc3)C2)C1 [Example 775, methyltrans-3-(((3S)-3-(((2R)-2-((4-(trifluoromethyl)benzyl)carbamoyl)-1-pyrrolidinyl)carbonyl)-1-piperidinyl)sulfonyl)cyclobutanecarboxylate]
AC1.4: 8.31 µM

CS(=O)(=O)c1cccc(C(=O)N2CC3(CCC3)[C@@H]2C(=O)N[C@@H](c2ccc(C(F)(F)F)cc2F)C2CC2)c1 [Example 475, (1R)-N-((R)-cyclopropyl(2-fluoro-4-(trifluoromethyl)phenyl)methyl)-2-(3-(methylsulfonyl)benzoyl)-2-azaspiro[3.3]heptane-1-carboxamide]
AC1.4: 1.866 µM

O=C(N[C@@H](c1ccc(C(F)(F)F)cc1F)C1CC1)[C@H]1CCCN1C(=O)c1cccc(S(=O)(=O)C2CC2)c1 [Example 223, N-((R)-cyclopropyl(2-fluoro-4-(trifluoromethyl)phenyl)methyl)-1-(3-(cyclopropylsulfonyl)benzoyl)-D-prolinamide]
AC1.4: 0.4842 µM

C[C@@H](NC(=O)[C@H]1CCCN1C(=O)c1cccc(S(=O)(=O)N2CC(C#N)C2)c1)c1cc(F)cc(F)c1 [Example 205, 1-(3-((3-cyano-1-azetidinyl)sulfonyl)benzoyl)-N-((1R)-1-(3,5-difluorophenyl)ethyl)-D-prolinamide]
AC1.4: 0.4322 µM

CC(C)(C)[C@@H](NC(=O)[C@H]1CCCN1C(=O)c1cccc(S(=O)(=O)N2CC(C#N)C2)c1)c1ccc(C(F)(F)F)cc1 [Example 627, 1-(3-((3-cyano-1-azetidinyl)sulfonyl)benzoyl)-N-((1R)-2,2-dimethyl-1-(4-(trifluoromethyl)phenyl)propyl)-D-prolinamide]
AC1.4: 4.037 µM

O=C(NCc1ccc(C(F)(F)F)cc1)[C@H]1CCCN1C(=O)[C@H]1CCCN(S(=O)(=O)N2CC(O)(c3ccccc3)C2)C1 [Example 371, 1-(((3S)-1-((3-hydroxy-3-phenyl-1-azetidinyl)sulfonyl)-3-piperidinyl)carbonyl)-N-(4-(trifluoromethyl)benzyl)-D-prolinamide]
AC1.4: 1.216 µM

NC(=O)[C@H]1C[C@H](S(=O)(=O)N2CCC[C@H](C(=O)N3CCC[C@@H]3C(=O)NCc3ccc(C(F)(F)F)cc3)C2)C1 [Example 626, 1-(((3S)-1-((trans-3-carbamoylcyclobutyl)sulfonyl)-3-piperidinyl)carbonyl)-N-(4-(trifluoromethyl)benzyl)-D-prolinamide]
AC1.4: 4.031 µM

N#CC1CN(S(=O)(=O)N2CC(C(=O)N3CCC[C@@H]3C(=O)NCc3ccc(C(F)(F)F)cc3)C3CC32)C1 (stereo partly drawn) [Example 503, (2R)-1-(2-((3-cyanoazetidin-1-yl)sulfonyl)-2-azabicyclo[3.1.0]hexane-4-carbonyl)-N-(4-(trifluoromethyl)benzyl)pyrrolidine-2-carboxamide]
AC1.4: 2.3565 µM

CS(=O)(=O)c1cccc(C(=O)N2CCC(F)(F)CC2C(=O)N[C@@H](c2ccc(C(F)(F)F)cc2F)C2CC2)c1 (stereo partly drawn) [Example 525, N-((R)-cyclopropyl(2-fluoro-4-(trifluoromethyl)phenyl)methyl)-4,4-difluoro-1-(3-(methylsulfonyl)benzoyl)piperidine-2-carboxamide]
AC1.4: 2.4285 µM

C[C@H](C(=O)N[C@H](C)c1ccc(C(F)(F)F)cc1)N(C)C(=O)[C@H]1CCCN(S(=O)(=O)N2CC(C#N)C2)C1 [Example 415, (3S)-1-((3-cyano-1-azetidinyl)sulfonyl)-N-methyl-N-((1R)-1-methyl-2-oxo-2-(((1R)-1-(4-(trifluoromethyl)phenyl)ethyl)amino)ethyl)-3-piperidinecarboxamide]
AC1.4: 1.522 µM

O=C(NCc1ccc(C(F)(F)F)cc1F)[C@H]1CCCN1C(=O)[C@H]1CCCN(S(=O)(=O)N2CC(OCCF)C2)C1 [Example 237, 1-(((3S)-1-((3-(2-fluoroethoxy)-1-azetidinyl)sulfonyl)-3-piperidinyl)carbonyl)-N-(2-fluoro-4-(trifluoromethyl)benzyl)-D-prolinamide]
AC1.4: 0.5593 µM

COCC1CN(S(=O)(=O)N2CCC[C@H](C(=O)N3CCC[C@@H]3C(=O)NCc3ccc(C(F)(F)F)cc3)C2)C1 [Example 788, 1-(((3S)-1-((3-(methoxymethyl)-1-azetidinyl)sulfonyl)-3-piperidinyl)carbonyl)-N-(4-(trifluoromethyl)benzyl)-D-prolinamide]
AC1.4: 8.9395 µM

CC[C@@H](NC(=O)[C@H]1CCCN1C(=O)c1cccc(S(=O)(=O)N2CC(C#N)C2)c1)c1ccc(C(F)(F)F)cc1F [Example 12, 1-(3-((3-cyano-1-azetidinyl)sulfonyl)benzoyl)-N-((1R)-1-(2-fluoro-4-(trifluoromethyl)phenyl)propyl)-D-prolinamide]
AC1.4: 0.0216 µM

CCN(CC)S(=O)(=O)c1cccc(C(=O)N2CCC[C@@H]2C(=O)NCc2ccc(C(F)(F)F)cc2)c1 [Example 564, 1-(3-(diethylsulfamoyl)benzoyl)-N-(4-(trifluoromethyl)benzyl)-D-prolinamide]
AC1.4: 3.077 µM

CS(=O)(=O)c1cccc(C(=O)N2[C@@H](C(=O)N[C@@H](c3ccc(C(F)(F)F)cc3F)C3(F)COC3)C[C@H]3C[C@H]32)c1 [Example 676, (1R,3R,5R)-N-((S)-(3-fluoro-3-oxetanyl)(2-fluoro-4-(trifluoromethyl)phenyl)methyl)-2-(3-(methylsulfonyl)benzoyl)-2-azabicyclo[3.1.0]hexane-3-carboxamide]
AC1.4: 4.59 µM

O=C(NCc1ccc(C(F)(F)F)cc1)[C@H]1CCCN1C(=O)[C@H]1CCCN(S(=O)(=O)N2CCC2c2cccc(Br)c2)C1 (stereo partly drawn) [Example 180, 1-(((3S)-1-((-2-(3-bromophenyl)-1-azetidinyl)sulfonyl)-3-piperidinyl)carbonyl)-N-(4-(trifluoromethyl)benzyl)-D-prolinamide]
AC1.4: 0.3256 µM

CC(C)(C#N)c1cccc(C(=O)N2[C@@H](C(=O)N[C@@H](c3ccc(C(F)(F)F)cc3F)C3COC3)C[C@H]3C[C@H]32)c1 [Example 412, (1R,3R,5R)-2-(3-(2-cyano-2-propanyl)benzoyl)-N-((R)-(2-fluoro-4-(trifluoromethyl)phenyl)(3-oxetanyl)methyl)-2-azabicyclo[3.1.0]hexane-3-carboxamide]
AC1.4: 1.495 µM

O=C(N[C@@H](c1cc(F)c(Cl)cc1F)C1CC1)[C@H]1C[C@H]2C[C@H]2N1C(=O)c1cccc(S(=O)(=O)CCO)c1 [Example 112, (1R,3R,5R)-N-((R)-(4-chloro-2,5-difluorophenyl)(cyclopropyl)methyl)-2-(3-((2-hydroxyethyl)sulfonyl)benzoyl)-2-azabicyclo[3.1.0]hexane-3-carboxamide]
AC1.4: 0.1762 µM

CC[C@@H](NC(=O)[C@H]1CCCN1C(=O)c1cccc(S(=O)(=O)N(C)C)c1)c1ccc(C(F)(F)F)cc1F [Example 146, 1-(3-(dimethylsulfamoyl)benzoyl)-N-((1R)-1-(2-fluoro-4-(trifluoromethyl)phenyl)propyl)-D-prolinamide]
AC1.4: 0.2474 µM

N#CC1CN(S(=O)(=O)c2cccc(C(=O)N3Cc4ccccc4C3C(=O)NCc3ccc(C(F)(F)F)cc3)c2)C1 (stereo not drawn) [Example 93, 2-((3-((3-cyano-1-azetidinyl)sulfonyl)phenyl)carbonyl)-N-(4-(trifluoromethyl)benzyl)-2,3-dihydro-1H-isoindole-1-carboxamide]
AC1.4: 0.1413 µM

O=C(N[C@@H](c1ccc(C(F)(F)F)cc1F)C1CC1)[C@H]1CCCN1C(=O)c1cccc(C(F)(F)F)c1 [Example 252, N-((R)-cyclopropyl(2-fluoro-4-(trifluoromethyl)phenyl)methyl)-1-(3-(trifluoromethyl)benzoyl)-D-prolinamide]
AC1.4: 0.6066 µM

N#CC1CN(S(=O)(=O)c2cccc(C(=O)N3CCC[C@@H]3C(=O)N[C@@H](CO)c3ccc(Cl)c(F)c3)c2)C1 [Example 105, N-((1R)-1-(4-chloro-3-fluorophenyl)-2-hydroxyethyl)-1-(3-((3-cyano-1-azetidinyl)sulfonyl)benzoyl)-D-prolinamide]
AC1.4: 0.1638 µM

CS(=O)(=O)c1cncc(C(=O)N2CSC[C@@H]2C(=O)N[C@@H](c2ccc(C(F)(F)F)cc2F)C2CC2)c1 [Example 342, (4S)-N-((R)-cyclopropyl(2-fluoro-4-(trifluoromethyl)phenyl)methyl)-3-((5-(methylsulfonyl)-3-pyridinyl)carbonyl)-1,3-thiazolidine-4-carboxamide]
AC1.4: 0.9661 µM

C[C@@H](NC(=O)[C@H]1CCCN1C(=O)[C@H]1CCCN(S(=O)(=O)N2CC(C#N)C2)C1)c1ccc(C(F)F)cc1 [Example 248, 1-(((3S)-1-((3-cyano-1-azetidinyl)sulfonyl)-3-piperidinyl)carbonyl)-N-((1R)-1-(4-(difluoromethyl)phenyl)ethyl)-D-prolinamide]
AC1.4: 0.5915 µM
